{"source": "patent US11191736B2", "about": "“Pharmaceutical formulations containing cannabidiol and nicotine for treating smokeless tobacco addiction” (CV Sciences, Inc., priority 2016, dated 2021)", "key": {"MAO-A enzyme": {"target": "T1, MAO-A enzyme (Homo sapiens, UniProt P21397)", "T1 sequence (P21397 1-527)": "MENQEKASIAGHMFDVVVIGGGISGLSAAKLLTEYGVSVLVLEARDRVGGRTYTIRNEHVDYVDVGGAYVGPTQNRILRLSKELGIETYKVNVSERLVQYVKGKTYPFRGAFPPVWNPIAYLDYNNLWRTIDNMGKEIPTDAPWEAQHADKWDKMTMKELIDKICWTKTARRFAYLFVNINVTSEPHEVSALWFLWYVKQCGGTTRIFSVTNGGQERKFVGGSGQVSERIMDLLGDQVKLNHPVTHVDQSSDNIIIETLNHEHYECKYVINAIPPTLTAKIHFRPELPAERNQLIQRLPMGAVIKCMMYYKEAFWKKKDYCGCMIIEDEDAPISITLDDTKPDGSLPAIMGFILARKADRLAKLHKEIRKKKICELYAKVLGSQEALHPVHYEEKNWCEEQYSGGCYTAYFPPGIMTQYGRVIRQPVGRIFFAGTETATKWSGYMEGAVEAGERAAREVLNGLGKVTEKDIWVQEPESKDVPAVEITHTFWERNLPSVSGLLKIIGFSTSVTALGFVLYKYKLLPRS", "test": "MAO-Glo luminescent assay, MAO-A inhibition", "type": "biochemical", "details": "FIG. 1", "from_the_text": "(§1) This example describes experiments for determining monoamine oxidase (MAO) inhibition activity for cannabidiol. MAOs are enzymes located on the outer membrane of mitochondria and are involved in the catabolism of monoamine neurotransmitters. There are two well-characterized isoenzymes: MAO-A, which predominantly catabolizes serotonin and norepinephrine, and MAO-B, which preferentially catabolizes benzylamine and phenylethylamine. Dopamine and tyramine are metabolized by both isoforms.\n(§2) To detect the activity of MAO, a luminescent method (MAO-Glo Assay kit, from Promega, Cat #V1401) was used. In this method, a MAO substrate (a derivative of beetle luciferin provided in the kit) is mixed with the compound to be tested (in this case, myosmine and control compounds). Then, the MAO-A or MAO-B enzyme is added to the mixture and incubated with the reaction for 1 hour at room temperature. The MAO enzymes, if not inhibited by the test compound, will convert the substrate into methyl ester luciferin. Finally, a luciferin detection reagent (provided by the kit) is added (20 minutes at room temperature) to stop the MAO reaction and convert methyl ester luciferin into D-luciferin. […] The luminescent signal is measured and recorded using a luminometer."}, "MAO-B enzyme": {"target": "T2, MAO-B enzyme (Homo sapiens, UniProt P27338)", "T2 sequence (P27338 1-520)": "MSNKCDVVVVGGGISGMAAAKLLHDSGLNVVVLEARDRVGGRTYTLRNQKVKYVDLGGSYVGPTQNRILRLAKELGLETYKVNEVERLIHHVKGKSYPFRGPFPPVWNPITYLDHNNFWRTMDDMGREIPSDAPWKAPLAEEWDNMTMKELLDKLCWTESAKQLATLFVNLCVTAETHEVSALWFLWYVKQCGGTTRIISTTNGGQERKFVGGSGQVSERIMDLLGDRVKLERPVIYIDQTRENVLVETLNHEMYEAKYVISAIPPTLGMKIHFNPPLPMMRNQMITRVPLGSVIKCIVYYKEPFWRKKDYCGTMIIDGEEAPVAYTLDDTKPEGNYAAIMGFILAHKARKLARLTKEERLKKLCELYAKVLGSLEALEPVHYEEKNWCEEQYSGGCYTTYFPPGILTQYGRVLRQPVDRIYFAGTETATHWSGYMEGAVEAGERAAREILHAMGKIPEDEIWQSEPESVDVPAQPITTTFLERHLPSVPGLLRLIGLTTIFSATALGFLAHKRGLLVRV", "test": "MAO-Glo luminescent assay, MAO-B inhibition", "type": "biochemical", "details": "FIG. 2", "from_the_text": "as §1, §2"}, "monoamine oxidase (MAO)": {"system": "monoamine oxidase (MAO)", "details": "Current Drug Safety, 2011, Vol. 6, No. 4; cited from earlier work"}, "[1]": {"details": "at a concentration of 7.5 mM (7,500 micromolar)"}}}
{"compound": "C=C(C)[C@@H]1CCC(C)=C[C@H]1c1c(O)cc(CCCCC)cc1O", "note": "[CBD, 2-[(1R,6R)-3-methyl-6-(1-methylethenyl)-2-cyclohexen-1-yl]-5-pentyl-1,3-benzenediol]", "values": [{"measurement": "MAO-A inhibition, result in words", "setting": "MAO-A enzyme; compared with nornicotine", "result": "potent inhibitor of MAO-A, in fact to an even greater extent than nornicotine"}, {"measurement": "inhibition at 7500 µM", "setting": "MAO-A enzyme; [1]", "result": "~50", "unit": "%"}, {"measurement": "MAO-B inhibition, result in words", "setting": "MAO-B enzyme; compared with MAO-A activity", "result": "also inhibits MAO-B activity, although to a lesser extent than MAO-A activity"}, {"measurement": "inhibition at 7500 µM", "setting": "MAO-B enzyme; [1]", "result": "~30", "unit": "%"}, {"measurement": "inhibiting monoamine oxidase (MAO) activity, prior report", "setting": "monoamine oxidase (MAO)", "result": "ineffective"}]}
